Converted amounts (≈) assume the structure as drawn.
What was measured:
Prot. rettg. BC 17 = experiment: serial dilution test in the microtiter system, minimum inhibitory concentration; type: cell-based, Proteus rettgeri; settings: Providencia rettgeri, 37° C., 18 to 20 hours
Experimental: (§1) The tests were performed using the serial dilution test in the microtiter system. The effect of the text compounds on bacteriostasis was examined at the following concentrations: 128, 64, 32, 16, 8, 4, 2, 1, 0.5, 0.25, 0.12, 0.06, 0.03, and 0.015 μg/ml. The nutrient medium consisted of 10 gm of peptone, 8 g of meat extract oxoid, 3 g of sodium chloride, and 2 g of sec. sodium phosphate diluted with distilled water to […] (pH 7.2-7.4). The age of the primary cultures was approximately 20 hours. The standardization of the bacteria suspension was effected using a photometer according to the method of Eppendorf (test tube .phi. 14 mm, filter 546 nm), using for comparison a barium sulfate suspension formed by the addition of 3.0 ml of 1% barium chloride solution to 97 ml of 1% sulfuric acid. After the standardization, the test pathogens were diluted further in a ratio of 1:1500 with a common salt solution.
(§2) Sixteen milligrams of a particular test compound were put into a 10 ml measuring flask, and the flask was subsequently filled to the mark with solvent. Further dilutions in the series were made with distilled water or the appropriate solvent.
(§3) The cavities of the microtiter plates were filled sequentially with 0.2 ml of nutrient medium, 0.01 ml of the appropriate test compound solution, and then 0.01 ml of the standardized bacteria suspension. The bacteria were incubated at 37° C. for from 18 to 20 hours. Control tests using only the solvent were carried out simultaneously.
(§4) The measurement was carried out macroscopically to determine the minimum inhibitory concentration (the lowest, still bacteriostatically effective concentration).
(§5) The following test organisms were used:
(§6) Staphylococcus aureus SG 511, Escherichia coli ATCC 11 775, Pseudomonas aeruginosa Hamburgensis and Pseudomonas aeruginosa Walter, Serratia marcescens ATCC 13 880, Klebsiella pneumoniea ATCC 10 031 and BC 6, Proteus mirabilis BC 17, Proteus rettgeri BC 7, Enterobacter cloaceae ATCC 13 047, and E. coli R+TEM (β-lactamase carrier), and Klebsiella pneumoniae 1082 E (β-lactamase carrier).
(§7) Representative compounds of the compounds of Formula I were tested. Those representative compounds comprised sodium salts of compounds of Formula I wherein R, D, and Y had the meanings set forth in the following table: […]

Proteus mirabilis BC 17 = experiment: as above; type: cell-based; settings: BC17, Prot. mir. BC 17, 37° C., 18 to 20 hours
Experimental: as §1, §2, §3, §4, §5, §6, §7

[1] = test system: Staphylococcus aureus SG 511; experiment: as above; type: cell-based; settings: SG511, St. aureus SG 511, 37° C., 18 to 20 hours
Experimental: as §1, §2, §3, §4, §5, §6, §7

[2] = test system: Pseudomonas aeruginosa Walter; experiment: as above; type: cell-based; settings: Pseud. aeru Walter, 37° C., 18 to 20 hours
Experimental: as §1, §2, §3, §4, §5, §6, §7

[3] = test system: Klebsiella pneumoniae 1082 E (β-lactamase carrier); experiment: as above; type: cell-based; settings: Klebs. pneum. 1082 E, 37° C., 18 to 20 hours
Experimental: as §1, §2, §3, §4, §5, §6, §7

[4] = test system: Escherichia coli ATCC 11 775; experiment: as above; type: cell-based; settings: E. coli ATCC 11775, 37° C., 18 to 20 hours
Experimental: as §1, §2, §3, §4, §5, §6, §7

[5] = test system: Pseudomonas aeruginosa Hamburgensis; experiment: as above; type: cell-based; settings: Pseud. aeru Hbg., 37° C., 18 to 20 hours
Experimental: as §1, §2, §3, §4, §5, §6, §7

[6] = test system: Serratia marcescens ATCC 13 880; experiment: as above; type: cell-based; settings: Serr. marcesc. ATCC 13880, 37° C., 18 to 20 hours
Experimental: as §1, §2, §3, §4, §5, §6, §7

[7] = test system: Enterobacter cloaceae ATCC 13 047; experiment: as above; type: cell-based; settings: Enterob. cloacae ATCC 13047, 37° C., 18 to 20 hours
Experimental: as §1, §2, §3, §4, §5, §6, §7

[8] = test system: Klebsiella pneumoniea ATCC 10 031; experiment: as above; type: cell-based, Klebsiella pneumoniae; settings: Klebs. pneum. ATCC 10031, 37° C., 18 to 20 hours
Experimental: as §1, §2, §3, §4, §5, §6, §7

[9] = test system: Klebsiella pneumoniea BC 6; experiment: as above; type: cell-based, Klebsiella pneumoniae; settings: BC6, Klebs. pneum. BC 6, 37° C., 18 to 20 hours
Experimental: as §1, §2, §3, §4, §5, §6, §7

E. coli ATCC 11775 = experiment: in vivo test against experimental intraperitoneal infection in mice; design: species or system E. coli in female mice of the NMRI strain; settings: Escherichia coli, ATCC11775, sc, 168 h; subcutaneous, one treatment 1 hour after i.p. infection, observation 7 days; read-out: ED50 (dose at which 50% of the animals survived)
Experimental: A number of the compounds according to the invention were tested in vivo against experimental infections in mice. E. coli ATCC 11775 was used as the pathogenic bacteria. An intraperitoneal infection was produced with 0.2 ml of a bacterial suspension (with 5% mucin), which corresponds to about 1.4×10^6 E. coli bacteria per mouse. Female mice of the NMRI strain were divided up into groups of 10 animals. Two groups were untreated, and the other groups were treated with various doses of the cephalosporins according to the invention, administered subcutaneously, to determine the ED50 (does at which 50% of the animals survived). One treatment was administered 1 hour after the infection.
In both cases, the observation period was 7 days.

Compound	MIC (Prot. rettg. BC 17) [µg/mL]	MIC (Proteus mirabilis BC 17) [µg/mL]	MIC [1] [µg/mL]	MIC [2] [µg/mL]	MIC [3] [µg/mL]	MIC [4] [µg/mL]	MIC [5] [µg/mL]	MIC [6] [µg/mL]	MIC [7] [µg/mL]	MIC [8] [µg/mL]	MIC [9] [µg/mL]	ED50 (E. coli ATCC 11775) [mg/kg]
Cn1nnnc1SCC1=C(C(=O)O)N2C(=O)[C@@H](NC(=O)C(NC(=O)Nc3cnc(NC4CCC(O)CC4)nc3O)c3csc(N)n3)[C@H]2SC1 (some centres unmarked) [D]	0.12 (≈ 0.164 µM)	0.12 (≈ 0.164 µM)	2 (≈ 2.73 µM)	16 (≈ 21.8 µM)	32 (≈ 43.6 µM)	0.06 (≈ 0.0818 µM)	16 (≈ 21.8 µM)	0.25 (≈ 0.341 µM)	0.25 (≈ 0.341 µM)	0.06 (≈ 0.0818 µM)	0.06 (≈ 0.0818 µM)	< 0.3
Cn1nnnc1SCC1=C(C(=O)O)N2C(=O)[C@@H](NC(=O)C(NC(=O)Nc3cnc(NCc4ccc(O)cc4)nc3O)c3csc(N)n3)[C@H]2SC1 (some centres unmarked) [G]	0.06 (≈ 0.0809 µM)	0.03 (≈ 0.0404 µM)	0.5 (≈ 0.674 µM)	8 (≈ 10.8 µM)	16 (≈ 21.6 µM)	0.03 (≈ 0.0404 µM)	16 (≈ 21.6 µM)	0.12 (≈ 0.162 µM)	0.12 (≈ 0.162 µM)	0.06 (≈ 0.0809 µM)	0.03 (≈ 0.0404 µM)	< 0.2
CC(=O)OCC1=C(C(=O)O)N2C(=O)[C@@H](NC(=O)C(NC(=O)Nc3cnc(Nc4ccc(S(N)(=O)=O)cc4)nc3O)c3csc(N)n3)[C@H]2SC1 (some centres unmarked) [Compound E]	0.12 (≈ 0.163 µM)	0.12 (≈ 0.163 µM)	0.5 (≈ 0.68 µM)	8 (≈ 10.9 µM)	32 (≈ 43.6 µM)	0.03 (≈ 0.0408 µM)	16 (≈ 21.8 µM)	0.12 (≈ 0.163 µM)	0.25 (≈ 0.34 µM)	0.06 (≈ 0.0817 µM)	0.06 (≈ 0.0817 µM)	0.1 to 0.3
Cn1nnnc1SCC1=C(C(=O)O)N2C(=O)[C@@H](NC(=O)C(NC(=O)Nc3cnc(NCCCO)nc3O)c3csc(N)n3)[C@H]2SC1 (some centres unmarked) [C]	0.25 (≈ 0.36 µM)	0.06 (≈ 0.0865 µM)	2 (≈ 2.88 µM)	32 (≈ 46.1 µM)	32 (≈ 46.1 µM)	0.06 (≈ 0.0865 µM)	32 (≈ 46.1 µM)	0.25 (≈ 0.36 µM)	0.5 (≈ 0.721 µM)	0.25 (≈ 0.36 µM)	0.12 (≈ 0.173 µM)	
Cc1nnc(SCC2=C(C(=O)O)N3C(=O)[C@@H](NC(=O)Cn4cnnn4)[C@H]3SC2)s1 [Cefazoline, reference compound]	> 128	4 (≈ 8.8 µM)	0.06 (≈ 0.132 µM)	> 128	> 128	4 (≈ 8.8 µM)	> 128	> 128	> 128	1 (≈ 2.2 µM)	2 (≈ 4.4 µM)	
Cn1nnnc1SCC1=C(C(=O)O)N2C(=O)[C@@H](NC(=O)C(NC(=O)Nc3cnc(Nc4ccc(S(N)(=O)=O)cc4)nc3O)c3csc(N)n3)[C@H]2SC1 (some centres unmarked) [F]	0.25 (≈ 0.316 µM)	0.25 (≈ 0.316 µM)	1 (≈ 1.26 µM)	16 (≈ 20.2 µM)	64 (≈ 80.9 µM)	0.06 (≈ 0.0759 µM)	16 (≈ 20.2 µM)	0.5 (≈ 0.632 µM)	0.5 (≈ 0.632 µM)	0.12 (≈ 0.152 µM)	0.12 (≈ 0.152 µM)	
CO/N=C(\C(=O)N[C@@H]1C(=O)N2C(C(=O)O)=C(COC(N)=O)CS[C@H]12)c1ccco1 [Cefuroxime, reference compound]	2 (≈ 4.71 µM)	0.5 (≈ 1.18 µM)	1 (≈ 2.36 µM)	> 128		8 (≈ 18.9 µM)	> 128	8 (≈ 18.9 µM)	32 (≈ 75.4 µM)	2 (≈ 4.71 µM)	4 (≈ 9.43 µM)	> 100
CCCNc1ncc(NC(=O)NC(C(=O)N[C@@H]2C(=O)N3C(C(=O)O)=C(CSc4nnnn4C)CS[C@H]23)c2csc(N)n2)c(O)n1 (some centres unmarked) [B]	0.12 (≈ 0.177 µM)	0.06 (≈ 0.0885 µM)	1 (≈ 1.48 µM)	32 (≈ 47.2 µM)	16 (≈ 23.6 µM)	0.06 (≈ 0.0885 µM)	32 (≈ 47.2 µM)	0.25 (≈ 0.369 µM)	0.25 (≈ 0.369 µM)	0.12 (≈ 0.177 µM)	0.06 (≈ 0.0885 µM)	
CCN1CCN(C(=O)N[C@@H](C(=O)N[C@@H]2C(=O)N3C(C(=O)O)=C(CSc4nnnn4C)CS[C@H]23)c2ccc(O)cc2)C(=O)C1=O [Cefaperazone (T 1551), reference compound]												3.1
Cn1nnnc1SCC1=C(C(=O)O)N2C(=O)[C@@H](NC(=O)C(NC(=O)Nc3cnc(C4CC4)nc3O)c3csc(N)n3)[C@H]2SC1 (some centres unmarked) [A]	0.12 (≈ 0.182 µM)	0.03 (≈ 0.0454 µM)	1 (≈ 1.51 µM)	32 (≈ 48.4 µM)	32 (≈ 48.4 µM)	0.03 (≈ 0.0454 µM)	32 (≈ 48.4 µM)	0.25 (≈ 0.378 µM)	0.5 (≈ 0.757 µM)	0.03 (≈ 0.0454 µM)	0.06 (≈ 0.0908 µM)	0.5

From patent US4370327A, “Cephalosporins and pharmaceutical compositions” (Boehringer Ingelheim GmbH, priority 1980, dated 1983)
